Results published in ChEMBL document CHEMBL1126000, “Synthesis of 2-substituted-1,3,4-thiadiazole-5-sulphonamides as novel water-soluble inhibitors of carbonic anhydrase” (Bioorg Med Chem Lett, 1991).
Converted amounts (≈) assume the structure as drawn. “And” between values parts separate entries of the source, which are not always exact repeats. Identical values can stand only once.

Test system: not listed separately
Test: Solubility in water, at 20 degrees Centigrade.
Assay type: physicochemical
Details: buffer

solubility [mM]	Structure (SMILES)
0.7 (≈ 196 µg/mL)	NCCCCC(=O)Nc1nnc(S(N)(=O)=O)s1

Same assay, conditions: water; read-out: Solubility

solubility [mM]	Structure (SMILES)
< 0.1	CC(=O)Nc1nnc(S(N)(=O)=O)s1 [ACETAZOLAMIDE]
701	Br.C[C@H](N)C(=O)Nc1nnc(S(N)(=O)=O)s1
< 0.1	NS(=O)(=O)c1nnc(NC(=O)CNC(=O)OCc2ccccc2)s1
896	Br.NCC(=O)Nc1nnc(S(N)(=O)=O)s1
103 (≈ 28900 µg/mL)	CC(C)COC(=O)Nc1nnc(S(N)(=O)=O)s1

Structure (SMILES)	solubility [mM]
Br.N[C@@H](Cc1ccccc1)C(=O)Nc1nnc(S(N)(=O)=O)s1	132
C[C@H](NC(=O)OCc1ccccc1)C(=O)Nc1nnc(S(N)(=O)=O)s1	< 0.1
NS(=O)(=O)c1nnc(NC(=O)[C@H](Cc2ccccc2)NC(=O)OCc2ccccc2)s1	< 0.1

Target: Carbonic anhydrase (Bos taurus, UniProt P00921+Q95323+P18915+Q3SZX4)
Details: not given

IC50	Structure (SMILES)
9 nM	Br.C[C@H](N)C(=O)Nc1nnc(S(N)(=O)=O)s1
8 nM	NS(=O)(=O)c1nnc(NC(=O)CNC(=O)OCc2ccccc2)s1
550 nM and 570 nM	CC(C)COC(=O)Nc1nnc(S(N)(=O)=O)s1
440 nM and 370 nM	NCCCCC(=O)Nc1nnc(S(N)(=O)=O)s1

Structure (SMILES)	IC50
Br.N[C@@H](Cc1ccccc1)C(=O)Nc1nnc(S(N)(=O)=O)s1	30 nM
C[C@H](NC(=O)OCc1ccccc1)C(=O)Nc1nnc(S(N)(=O)=O)s1	7 nM
NS(=O)(=O)c1nnc(NC(=O)[C@H](Cc2ccccc2)NC(=O)OCc2ccccc2)s1	5 nM
